# Entries after “also recorded” stand apart in the source; their conditions may differ.
# What was measured:
# HEKa cells [1] = experiment: Antibody microarray (Panorama XP725) of calcitriol-treated HEKa cells; assay type: cell-based, human; details: 24-hour
# Description: Briefly, the treated HEKa cells were first harvested and then extracted to obtain a soluble protein supernatant. Two portions of the extracted protein sample (˜1 mg total) from each sample (at 1 mg/mL) were each labeled with fluorescent dye (Cy3 and Cy5, respectively). The excess dye was removed from the protein sample, and the resulting labeled protein samples were used for microarray incubation. To determine the expression level of a particular target protein at a later time point (e.g., at hour 6 or 24) relative to that at an earlier time point (e.g., at hour 3), the samples were labeled by different labels (e.g., 3-hour extract labeled with Cy3, 6-hour or 24-hour extract labeled with Cy5). Then the two labeled samples containing equal amounts of total protein were mixed (e.g., Cy3-labeled 3-hour sample is mixed with Cy5-labeled 6-hour or 24-hour samples, respectively). After incubation with the microarray chip (according to manufactures recommended protocols), the chips were washed and dried. The microarrays were then scanned with a fluorescent laser scanner to measure the relative fluorescence intensity of the Cy3 and Cy5 dyes. If the amount of a particular type of target protein increased (or decreased) over time, more (or less) of the dye associated with the later time point (e.g., Cy5) will be retained by the microarray. […]
# HEKa cells [2] = experiment: 2-D gel electrophoresis proteomic analysis of calcitriol-treated HEKa cells; assay type: cell-based, human; details: 0.1 μg/mL calcitriol, 3, 6, 24 hours vs control
# Description: The cell pellets were then analyzed using proteomic methods, such as 2-D gel and Western blot analysis. […] In all, analysis of about 458 protein spots in the comparative study was performed, comparing the control sample against the 3-, 6-, and 24-hour treatment samples. Six spots showing statistically significant differential changes were identified. These spots were excised, and their protein contents subjected to sequence identification by trypsin digestion and mass spectrometry characterization.
# [3] = tested on: MIAC51 (chloroleukemia cells); experiment: Chloroleukemia (MIAC51) in rats: cure / survival under chemotherapy with topical calcitriol; assay type: in vivo, rat
# Description: For experiments in which rats were transplanted with chloroleukemia, on Day 5 after birth, rats were randomly divided into three groups of 45 each. All rats received 1×10^5 chloroleukemic cell line MIAC51 (i.p.) in 0.1 mL of serum free (SF) RPMI. MIAC51 were cultured in RPMI 1640 supplemented with L-glutamine and 10% fetal bovine serum at 37° C. in a 5% CO2, 100% humidity incubator. Cells were grown to 50% confluency (1.5×106 mL) collected in 50 mL conical tubes, centrifuged at 600 g×10 min. at room temperature and resuspended in SF-RPMI at a concentration of 1×10^6/mL. Group 1 rats received no further treatment. Group 2 rats received topical vehicle and CTX on day 13. […] Topical applications were performed as described above.
# On day 23 after birth, a sample of blood was taken from all rats and differentials performed. Rats with leukemia were sacrificed, rats without leukemia were kept and a second differential performed on day 31, at any point if leukemia was detected, animals were sacrificed by CO2 asphyxiation.
# On day 5 after birth all rats received 1×105 MIAC51 intraperitoneally in 0.1 mL of serum free (SF) RPMI. MIAC51 were cultured in RPMI 1640 supplemented with L-glutamine and 10% fetal bovine serum at […] in a 5% CO2, 100% humidity incubator. Cells were grown to 50% confluency (1.5×106 mL) collected in 50 mL conical tubes, centrifuged at 600 g for 10 minutes at room temperature and resuspended in SF-RPMI at a concentration of 1×10^6/mL prior to injection.
# […]
# Long Evans rats = experiment: CIA in chloroleukemic Long Evans rats receiving multi-course chemotherapy; assay type: in vivo, rat; parameters: protection from CIA: concentration or dose not given beside the values; details: for protection from CIA: both cycles
# patients = experiment: Phase I dose-escalation study: safety and tolerability in cancer patients on taxane-based chemotherapy; assay type: in vivo
# Description: The dosage will be escalated if the clinical toxicity is declared acceptable (see below). five dose levels will be considered for escalation (10, 20, 40, 60 and 80 μg/mL). Determination of dose limiting toxicity (DLT, defined in section 8.2) will be made during the first 28 days of topical treatment. No intrapatient dose escalation will be performed. […] The dose escalation scheme (Table 8.1) will occur as follows:
# If the patient presents with symptoms of hypercalcemia, serum calcium should be determined and treatment should be stopped immediately. Hypercalcemia will be defined using CTCAE version 4.0 grade 3 (or higher), which is defined as serum calcium >12.5-13.5 mg/dL; >3.1-3.4 mmol/L or ionized calcium >1.6-1.8 mmol/L and hospitalization is indicated. For patients with asymptomatic hypercalcemia determined by elevated serum calcium, their ionized calcium levels will first be checked. If the ionized calcium level is in fact elevated, the study drug will be stopped. If the ionized calcium level is normal, the patient will remain on the study and ionized calcium will be followed rather than serum calcium.
# Each patient underwent PK analysis, adverse event monitoring, patient self-assessment diaries (1-10 scale), and blinded photographic assessments. […] Toxicity was determined on a weekly basis during Cycle 1 (i.e., the first 28 days of topical agent application) and subsequently every four weeks. Patients were managed with adequate safety (adverse event) monitoring and pharmacokinetic (PK) analysis in order to determine levels of exposure.
structure (smiles),measurement,setting,value
"C=C1/C(=C\C=C2/CCC[C@]3(C)[C@@H]([C@H](C)CCCC(C)(C)O)CC[C@@H]23)C[C@@H](O)C[C@@H]1O [Calcitriol, (5Z,7E)-9,10-secocholesta-5,7.10(19Hriene-1 a,33.25-triol]",proteins significantly upregulated (number),HEKa cells [1],about fifty proteins
same,Galectin 1 (LGALS1) Response,HEKa cells [2],up at 6 and 24
same,Glutathione S-transferase (GST) Response,HEKa cells [2],"up at 3, 6, and 24"
same,Keratin 17 (KR17) Response,HEKa cells [2],down at 24 hours
same,S100 A9 (Calprotectin) Response,HEKa cells [2],down at 6 and 24
same,S100 A13 Response,HEKa cells [2],up at 6 and 24
same,"Survival Rate, %","[3]; ADM, Paclitaxel and Etoposide, after Two Rounds",80%
same,"Survival Rate, %","[3]; CTX and ADM, after Two Rounds",50%
same,"Survival Rate, %","[3]; CTX, ADM and ARA-C, after Two Rounds",78%
same,"Survival Rate, %","[3]; CTX, Paclitaxel and Etoposide, after Two Rounds",83%
same,"Survival Rate, %","[3]; CTX, after Two Rounds of Chemotherapy",25%
same,protection of the cancer cells from chemotherapy (cyclophosphamide),"[3]; Long Evans rats injected with MIAC51, topical calcitriol",does not protect the cancer cells from chemotherapy; also recorded: have not shown protection; also recorded: not protecting the cancer cells
same,effect on the cure rate associated with cyclophosphamide,"[3]; chloroleukemia induced (MIAC51), calcitriol 1-3 μg/mL study",did not affect the cure rate
same,interference with the cure rate,"[3]; cyclophosphamide and doxorubicin group, cure rate 50-55%",did not interfere with the cure rate
same,interference with the cure rate,"[3]; cyclophosphamide group, cure rate 20-25%",did not interfere with the cure rate
same,interference with the cure rate,"[3]; cyclophosphamide, doxorubicin and cytarabine group, cure rate 75-80%",did not interfere with the cure rate
same,interference with the cure rate,"[3]; cyclophosphamide, paclitaxel and etoposide group, cure rate 78-83%",did not interfere with the cure rate
same,interference with the cure rate,"[3]; doxorubicin, paclitaxel and etoposide group, cure rate 80-83%",did not interfere with the cure rate
same,effect on the efficacy of the chemotherapy agents,[3]; number of animals free from leukemia,did not affect the efficacy of the chemotherapy agents
same,ALOPECIA 0 (number of rats),"Long Evans rats; ADM, Paclitaxel and Etoposide, after First Round",40
same,ALOPECIA 0 (number of rats),"Long Evans rats; ADM, Paclitaxel and Etoposide, after Second Round",32
same,ALOPECIA 0 (number of rats),"Long Evans rats; CTX and Doxorubicin (ADM), after First Round",40
same,ALOPECIA 0 (number of rats),"Long Evans rats; CTX and Doxorubicin (ADM), after Second Round",20
same,ALOPECIA 0 (number of rats),"Long Evans rats; CTX, ADM and Cytarabine (ARA-C), after First Round",40
same,ALOPECIA 0 (number of rats),"Long Evans rats; CTX, ADM and Cytarabine (ARA-C), after Second Round",31
same,ALOPECIA 0 (number of rats),"Long Evans rats; CTX, Paclitaxel and Etoposide, after First Round",40
same,ALOPECIA 0 (number of rats),"Long Evans rats; CTX, Paclitaxel and Etoposide, after Second Round",33
same,ALOPECIA 0 (number of rats),"Long Evans rats; Cyclophosphamide (CTX), after First Round of Chemotherapy",40
same,ALOPECIA 0 (number of rats),"Long Evans rats; Cyclophosphamide (CTX), after Second Round of Chemotherapy",10
same,protection from CIA,Long Evans rats; cyclophosphamide and doxorubicin group,100%
same,"extent of alopecia (grade), all rats","Long Evans rats; cyclophosphamide and doxorubicin regimen, after the first round",did not exhibit any signs of alopecia
same,protection from CIA,Long Evans rats; cyclophosphamide group,100%
same,"extent of alopecia (grade), all rats","Long Evans rats; cyclophosphamide regimen, after the first round of chemotherapy",did not exhibit any signs of alopecia
same,protection from CIA,"Long Evans rats; cyclophosphamide, doxorubicin and cytarabine group",100%
same,"extent of alopecia (grade), all rats","Long Evans rats; cyclophosphamide, doxorubicin and cytarabine regimen, after the first round",did not exhibit any signs of alopecia
same,protection from CIA,"Long Evans rats; cyclophosphamide, paclitaxel and etoposide group",100%
same,"extent of alopecia (grade), all rats","Long Evans rats; cyclophosphamide, paclitaxel and etoposide regimen, after the first round",did not exhibit any signs of alopecia
same,protection from CIA,"Long Evans rats; doxorubicin, paclitaxel and etoposide group",100%
same,"extent of alopecia (grade), all rats","Long Evans rats; doxorubicin, paclitaxel and etoposide regimen, after the first round",did not exhibit any signs of alopecia
same,AEs Related to Study Drug,patients; 5 μg/mL × 1 mL BID,Mild Scalp pain (1)
same,serious adverse events reported (number),patients; all dose levels,25
same,dose limiting toxicities (DLTs),"patients; human, in vivo",No dose limiting toxicities
same,serious adverse events unrelated/unlikely to the study drug,"patients; human, in vivo, 3 months",84%
same,serious adverse events unrelated/unlikely to the study drug (number),"patients; human, in vivo, 3 months",21
same,serious adverse events possibly related to the study drug (number),"patients; one patient, 40 μg/mL, passing a renal calculi",4
same,maximum tolerated dose (MTD),patients; up to 80 μg/mL,not detected

# From patent US20230302022A1, “PREVENTING OR MITIGATING CHEMOTHERAPY INDUCED ALOPECIA USING VITAMIN D” (priority 2016, published 2023)
